How the values were obtained:
TNF-α = experiment: R848 stimulated TNF-α production in human whole blood; assay type: cell-based; conditions: R848, 0.5 ug/mL, 5 hr
Experimental: Human whole blood assays were performed as described above with the exceptions listed below. […] Compounds were serially diluted in 100% DMSO (Sigma-Aldrich, D2650) followed by a 10× dilution into RPMI (Gibco, 11875). After the one-hour incubation with the compounds or vehicle, 2 μL of R848 (InvivoGen, tlrl-r848) in RPMI (Gibco, 11875) was added for a final concentration of 0.5 μg/mL to each well except for the no stimulus wells. After five hours of incubation with R848, plasma was harvested and assayed for TNF-α, IL-1β, IL-6 and IL-8 using Meso Scale Discovery Technology V-plex human cytokine kits according to the kit protocol.

IL-10 = experiment: Ex vivo stimulated IL-10 in blood of subjects dosed 80 mg or 120 mg; design: species or system human; conditions: 80 mg or 120 mg BID
Experimental: (§1) Methods: Safety, pharmacokinetics (PK) and pharmacodynamics (PD) were assessed in two cohorts of subjects in a randomized, observer-blind, placebo-controlled study in male and female healthy subjects aged 18-55 (n=77). The study consisted of twenty (20) subjects enrolled into 2 cohorts. […] The final dose was administered in the morning on Day 7. Blood samples were obtained Day 1—before dosing, Day 1—4 hours after dosing and Day 1—12 hours after dosing and Day 7—before dosing, Day 7—4 hours after dosing, day 7—12 hour after dosing and Day 7—24 hours after dosing for each subject.

[1] = Phase 1 SAD/MAD safety and tolerability in healthy subjects (incl. 80/120 mg BID extension)
Experimental: Single ascending dose (SAD) cohorts.
Multiple ascending dose (MAD) cohorts. […] Subjects were admitted to the clinical facility on day −1 and remained at the site until 72 hours after the morning dose on day 7.
Safety and Tolerability Assessments. Adverse events, clinical laboratory tests, vital signs, an electrocardiogram, Holter monitoring, and physical examination results were evaluated for each subject in both parts of the study.
as §1

[2] = test system: p-HSP27 (phosphorylated heat shock protein 27); experiment: Ex vivo LPS-stimulated p-HSP27 in blood of dosed healthy subjects, PK/PD inhibitory Emax model; design: species or system human
Experimental: Blood samples of 10 mL were collected for PD analysis. For the SAD cohorts, blood was collected before dosing and 1, 12, and 24 hours after dosing. For the MAD cohorts, on day 1 blood was collected before the morning dose and 4 and 12 hours after the morning dose (prior to the evening dose); on day 7, blood was collected before the morning dose and 4 and 12 hours after the morning dose.
Additional details of the assays for analyzing p-HSP27 and cytokines are included in the Supplementary Information.
Pharmacodynamics. PD data analysis was conducted using Microsoft Excel 2010 (Microsoft, Redmond, WA), Meso Scale Discovery Workbench® analysis software (Rockville, MD), and Phoenix WinNonlin, version 8.2.
Sample Preparation for p-HSP27 Analysis. […] Treatment groups consisted of 3 tubes for group ‘A’, 2 tubes for group ‘B’, and 1 tube for group ‘C’.
Dimethyl sulfoxide (DMSO) was added to all tubes in groups ‘A’ and ‘C’ to a final concentration of 0.1% (10 μL per mL of a 10% DMSO solution in Dulbecco's Modified Eagle Medium (DMEM) containing 10% fetal bovine serum (FBS) and 1% penicillin/streptomycin/glutamine). Samples were then rocked gently at room temperature. […] Samples were then rocked gently at room temperature for a minimum of 1 hour.
Samples in groups ‘A’ and ‘B’ were stimulated with lipopolysaccharide at a final concentration of 100 ng/mL for 22 minutes at room temperature. A stock solution of lipopolysaccharide at 1 mg/mL in DMEM containing 10% FBS and 1% penicillin/streptomycin was diluted to 10 μg/mL in DMEM containing 10% FBS and 1% penicillin/streptomycin, and 10 μL of this working solution was added per mL of blood. Samples were gently rocked at room temperature for 11 minutes, then placed upright for 11 minutes prior to peripheral blood mononuclear cells (PBMC) isolation.
Ten μL of DMEM containing 10% FBS only was added per mL of blood in group ‘C’ for all patient samples (unstimulated samples). Samples were gently rocked at room temperature for 11 minutes, then placed upright for 11 minutes prior to PBMC isolation.
Upon completion of treatment (lipopolysaccharide stimulated or unstimulated) for each sample, PBMCs were isolated from each human whole blood aliquot in all treatment groups. One mL of blood from each sample was gently layered onto 0.75 mL of Histopaque-1077 in a 2-mL microcentrifuge tube. Histopaque-1077 was maintained at room temperature. The samples were centrifuged for 2 minutes at 16,000×g in an Eppendorf microcentrifuge. The interface and upper layers were removed and added to tubes containing 1 mL cold Dulbecco's phosphate-buffered saline (DPBS). These samples were then centrifuged for 30 seconds at 16,000×g in an Eppendorf microcentrifuge to pellet the cells. The buffer supernatant was removed by aspiration and the pellets were re-suspended in 1 mL of cold DPBS. The pellets from each sample were then re-pelleted, as described above. […]
Analysis of p-HSP27 (Ser78) Levels Using Luminex Technology. The lysates were analyzed for HSP27 phosphorylation with a custom Milliplex® MAP Human Phospho-HSP27(Ser78) Cell Signaling Magnetic Bead Kit from Millipore Sigma (Burlington, MA) using the kit-prescribed immunoassay protocol for a 96-well solid plate and hand-held magnetic separation block. […]

[3] = all ATI-450 SAD and MAD cohorts, 3/48
[4] = all ATI-450 SAD and MAD cohorts, n = 48

Q: For Cc1cnc(-c2ccnc(C(C)(C)O)n2)cc1-n1c(C)cc(OCc2ncc(F)cc2F)c(Cl)c1=O (single isomer, unassigned) [ATI-450, 3-chloro-4-((3,5-difluoropyridin-2-yl)methoxy)-2′-(2-(2-hydroxypropan-2-yl)pyrimidin-4-yl)-5′,6-dimethyl-2H-[1,4′-bipyridin]-2-one], which IC50 (TNF-α) is on record?
A: 34.8 ± 5 nM

Q: What about the IL-10 modulation (IL-10) of the same compound?
A: 25-30%

Q: And the “subjects with TEAEs considered related to the study drug” value (“subjects with TEAEs considered related” below) ([1]; 10 mg BID cohort, 1 of 8)?
A: 13%

Q: What about the “subjects with TEAEs considered related” value ([1]; 30 mg BID cohort, 5 of 8) of the same compound?
A: 63%

Q: And the “subjects with TEAEs considered related” value ([1]; 50 mg BID cohort, 3 of 8)?
A: 38%

Q: What about the neutrophils ([1]; 50 mg BID, day 7 (baseline 3318.4 cells/μL)) of the same compound?
A: 2514.4 cells/μL

Q: What about the “mean reduction in neutrophils” value ([1]; 50 mg BID, day 7 vs baseline) of the same compound?
A: 24%

Q: What about the “Constipation, AE, n (%)” value ([1]; 80 mg BID, 7 days, n = 8) of the same compound?
A: 1 (14%)

Q: And the “Dizziness, AE, n (%)” value ([1]; 80 mg BID, 7 days, n = 8)?
A: 2 (25%)

Q: And the “Headache, AE, n (%)” value ([1]; 80 mg BID, 7 days, n = 8)?
A: 2 (25%)

Q: What about the “Xerosis, AE, n (%)” value ([1]; 80 mg BID, 7 days, n = 8) of the same compound?
A: 1 (13%)

Q: And the tolerability ([1]; 80 mg and 120 mg BID, 7 days)?
A: well tolerated with no severe adverse effects reported

Q: What about the “Abdominal Pain, AE, n (%)” value ([1]; 120 mg BID, 7 days, n = 8) of the same compound?
A: 1 (13%)

Q: And the “Dizziness, AE, n (%)” value ([1]; 120 mg BID, 7 days, n = 8)?
A: 6 (75%)

Q: And the “Headache, AE, n (%)” value ([1]; 120 mg BID, 7 days, n = 8)?
A: 7 (88%)

Q: What about the “Loose stools, AE, n (%)” value ([1]; 120 mg BID, 7 days, n = 8) of the same compound?
A: 1 (13%)

Q: And the “Nausea, AE, n (%)” value ([1]; 120 mg BID, 7 days, n = 8)?
A: 2 (25%)

Q: What about the “Parasthesia, AE, n (%)” value ([1]; 120 mg BID, 7 days, n = 8) of the same compound?
A: 2 (25%)

Q: What about the “Pharyngitis, AE, n (%)” value ([1]; 120 mg BID, 7 days, n = 8) of the same compound?
A: 1 (13%)

Q: What about the “Xerosis, AE, n (%)” value ([1]; 120 mg BID, 7 days, n = 8) of the same compound?
A: 5 (63%)

Q: And the “neutrophils, laboratory change” value ([1]; MAD cohort, maximum effect Day 2 to Day 5)?
A: dose dependent reduction in neutrophils

Q: And the “character of TEAEs” value ([1]; MAD cohorts 10-50 mg BID)?
A: mild, transient, and resolved without sequelae

Q: What about the “deaths, serious adverse events” value ([1]; MAD cohorts 10-50 mg BID) of the same compound?
A: no deaths or SAEs

Q: And the “subjects with TEAEs considered related” value ([1]; MAD cohorts 10-50 mg BID, 9 of 24)?
A: 38%

Q: And the “subjects reporting TEAEs” value ([1]; MAD cohorts 10-50 mg BID, 12 of 24)?
A: 50%

Q: And the “vital signs, electrocardiograms, clinical laboratory values” ([1]; SAD and MAD cohorts)?
A: No clinically significant findings

Q: What about the “character of TEAEs” value ([1]; SAD cohorts) of the same compound?
A: mild, transient, and resolved without sequelae

Q: What about the “deaths, serious adverse events, discontinuations” value ([1]; SAD cohorts) of the same compound?
A: No deaths or serious adverse events (SAEs)

Q: And the “subjects with TEAEs considered related” value ([1]; SAD cohorts, 4 of 24)?
A: 17%

Q: And the “subjects reporting TEAEs” value ([1]; SAD cohorts, 7 of 24)?
A: 29%

Q: What about the “constipation, subjects with adverse event” value [1, 3] of the same compound?
A: 6.3%

Q: And the “upper respiratory tract infection, subjects with adverse event” value [1, 3]?
A: 6.3%

Q: And the “dizziness, subjects with adverse event” value ([1]; all ATI-450 SAD and MAD cohorts, 6/48)?
A: 12.5%

Q: And the “Abdominal pain, treatment-emergent adverse event, n subjects” value [1, 4]?
A: 2

Q: What about the “Constipation, treatment-emergent adverse event, n subjects” value [1, 4] of the same compound?
A: 3

Q: And the “Dizziness, treatment-emergent adverse event, n subjects” value [1, 4]?
A: 6

Q: And the “Headache, treatment-emergent adverse event, n subjects” value [1, 4]?
A: 10

Q: And the “Nausea, treatment-emergent adverse event, n subjects” value [1, 4]?
A: 2

Q: And the “Upper respiratory tract infection, treatment-emergent adverse event, n subjects” value [1, 4]?
A: 3

Q: And the “Vomiting, treatment-emergent adverse event, n subjects” value [1, 4]?
A: 0

Q: What about the “subjects with TEAEs considered related” value ([1]; single dose 10 mg cohort) of the same compound?
A: 0 subjects

Q: And the “subjects with TEAEs considered related” value ([1]; single dose 30 mg cohort)?
A: 33%

Q: And the “subjects with TEAEs considered related” value ([1]; single dose 50 mg cohort)?
A: 17%

Q: What about the “subjects with TEAEs considered related” value ([1]; single dose 100 mg cohort) of the same compound?
A: 1 subject

Q: What about the safety and tolerability ([1]; single doses up to 100 mg, multiple doses up to 50 mg BID for 7 days) of the same compound?
A: generally safe and well tolerated

Q: What about the “Cmax (Multiple of IC80)” value ([2]; 50 mg BID, day 7) of the same compound?
A: 6.0x

Q: What about the “Ctrough (Multiple of IC80)” value ([2]; 50 mg BID, day 7) of the same compound?
A: 2.4x

Q: What about the IC80 ([2]; Homo sapiens, calculated from IC50, combined SAD and MAD data, read-out: IC80, plasma concentration at 80% of maximal inhibition) of the same compound?
A: 0.0367 µg/mL

Q: And the IC50 ([2]; Homo sapiens, inhibitory Emax model, combined SAD and MAD data, read-out: IC50, plasma concentration at half maximal inhibition)?
A: 0.0092 µg/mL

Q: What about the “IC80, plasma concentration at 80% of maximal inhibition” value ([2]; calculated from IC50, combined SAD and MAD data) of the same compound?
A: 0.0367 µg/mL

Reference: patent US11844801B2, “Oral compositions of MK2 pathway inhibitor for treatment of immune conditions” (priority 2020, dated 2023)
